We go through eight compounds from article PMC8920097, “Prediction of hERG inhibition of drug discovery compounds using biomimetic HPLC measurements” (ADMET & DMPK, 2021).

Read-outs that look alike come from different tables or passages of the source.

The target in data set [1] is human serum albumin (HSA) (Homo sapiens, UniProt P02768). In words: Protein binding on Chiralpak HSA HPLC column. To be noted: pH 7.4, Chiralpak HSA. In outline: (§1)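 Binding measured by gradient HPLC on immobilised HSA or AGP stationary phases.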
Sequence of human serum albumin (HSA) (P02768 25-609): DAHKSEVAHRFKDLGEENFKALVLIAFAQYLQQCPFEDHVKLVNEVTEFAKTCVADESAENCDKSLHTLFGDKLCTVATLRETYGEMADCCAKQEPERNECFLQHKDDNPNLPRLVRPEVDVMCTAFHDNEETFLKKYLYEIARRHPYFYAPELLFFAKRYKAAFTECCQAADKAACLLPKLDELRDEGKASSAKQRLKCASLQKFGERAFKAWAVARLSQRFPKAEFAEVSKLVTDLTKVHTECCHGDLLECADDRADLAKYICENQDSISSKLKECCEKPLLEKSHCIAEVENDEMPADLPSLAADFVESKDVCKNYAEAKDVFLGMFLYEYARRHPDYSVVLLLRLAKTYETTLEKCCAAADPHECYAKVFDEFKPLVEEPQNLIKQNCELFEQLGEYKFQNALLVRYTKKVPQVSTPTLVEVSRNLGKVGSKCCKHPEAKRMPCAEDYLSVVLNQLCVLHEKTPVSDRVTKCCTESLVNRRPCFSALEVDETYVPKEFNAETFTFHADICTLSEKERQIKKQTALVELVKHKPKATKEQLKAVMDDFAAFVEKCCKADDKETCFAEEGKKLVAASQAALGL
Data set [2] is described as follows: Phospholipid binding at pH 7.4 on IAM PC.DD2 HPLC column. Format: physicochemical. Further details: key to CHI IAM: approximates acetonitrile concentration (%) in mobile phase at elution. To be noted: for CHI IAM: pH 7.4; for log k IAM: pH 7.4, derived from CHI IAM by equation 1. A digest of the protocol: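 Gradient retention on IAM PC.DD2 column (100 x 4.6 mm) with 50 mM ammonium acetate pH 7.4, 1.5 mL/min, 6 min cycle. Retention calibrated against acetophenone homologues to give CHI IAM (approximate acetonitrile concentration at elution), converted to log k IAM by equation.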

A short description of data set [3]: CHI lipophilicity by gradient reversed-phase HPLC (Gemini NX-C-18). The conditions noted are these: for chromatographic logD: Gemini NX-C-18 reversed-phase HPLC column, pH 7.4. A digest of the protocol:
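Calibrated gradient retention times came from a 50 x 3 mm, 5 μm C-18 column run with a 0–100% linear acetonitrile gradient. A standard compound set converted these times to CHI values.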

Data set [4] in a line: Charge character of the drugs at pH 7.4. The data set is classed as physicochemical.
Data set [5] concerns AGP. To be noted: calibration set; equilibrium dialysis; literature; cited from earlier work. Background: In equilibrium dialysis free small molecules cross a membrane that holds back macromolecules.
Data set [6] has as its system HSA. The conditions noted are these: calibration set; equilibrium dialysis; literature; cited from earlier work.
The subject of data set [7] is AGP. Kind of data set: Literature % binding to AGP by equilibrium dialysis (calibration set). The conditions noted are these: log k = log (%binding/(101-%binding)) from literature % binding.
Data set [8] concerns alpha-1-acid-glycoprotein (AGP). In words: Protein binding on Chiralpak AGP HPLC column. The conditions noted are these: pH 7.4, Chiralpak AGP. In outline:
as §1

Data set [9] concerns HSA. The conditions noted are these: calibration set; log k = log (%binding/(101-%binding)) from literature % binding.
The subject of the next data set is hERG channel. To be noted: cited from earlier work.
On the set-up of data set [10]: method as in doi:10.5599/admet.5.1.373. To be noted: calibration set; predetermined by isocratic measurements; cited from earlier work.
In data set [11] the test system is AGP.
The mark [12] stands for this setting: literature values, mean where several reported, molar.

In general, chromatographic logD refers to a lipophilicity value derived from retention on a column. Broadly, the chromatographic logP is a lipophilicity value derived from retention on a column. For the compound `NC(=O)N1c2ccccc2C=Cc2ccccc21` [Carbamazepine], the “log k HSA” value was 0.07 in data set [1] and 0.5 in the data set on HSA [9]. In addition, the “CHI IAM” value in data set [2] is listed as 23.98. In addition, the “log k IAM” value in data set [2] was determined as 1.53. Further, the chromatographic logD in data set [3] worked out at 1.22. The chromatographic logP in data set [3] (reversed-phase HPLC, Gemini NX-C-18 column (50 x 3 mm, 5 µm)) is 1.33. Further, the Charge result in data set [4] is reported as “Neutral”. Moreover, the “% AGP” value in the data set on AGP [5] is given as 65.0%. Moreover, the “%HSA” value in the data set on HSA [6] is 75.0%. The “log k AGP” value with AGP [7] is reported as 0.3; in data set [8] it was -0.85. The “hERG pIC50” value in the data set with hERG channel (setting [12]) was 3.98.
For `COc1ccc2c(c1)c(CC(=O)O)c(C)n2C(=O)c1ccc(Cl)cc1` [Indomethacin], in data set [2], the “CHI IAM” value is 30.11 and the “log k IAM” value amounted to 1.81. In data set [3], this compound had a chromatographic logP of 3.31 and a chromatographic logD of 1.47. Besides, in data set [4], the Charge entry is listed as “Acidic”. In addition, in the data set with AGP [5], the “% AGP” value is listed as 56.0%. Moreover, in the data set with AGP [7], the “log k AGP” value is 0.1. For the same compound, the “log k AGP” value in [8] came out at 0.18. Besides, in the data set with HSA [9], the “log k HSA” value came out at 1.8. Besides, the “hERG pIC50” value with hERG channel was 3.72.
Regarding `COC(=O)C1=C(C)NC(C)=C(C(=O)OCCN(C)Cc2ccccc2)C1c1cccc([N+](=O)[O-])c1` (stereo not shown) [Nicardipine], in the data set on AGP [5], the “% AGP” value was 87.0%. Moreover, the “log k AGP” value in the data set with AGP [7] was found to be 0.8. Further, the “log k HSA” value with HSA [9] turned out to be 1.2.
As for `CNC(=C[N+](=O)[O-])NCCSCc1csc(CN(C)C)n1` [Nizatidine], the “% AGP” value with AGP [5] is given as 37.1%. In the data set on HSA [6], the “%HSA” value is 20.4%. The “log k AGP” value in the data set with AGP [7] is reported as -0.2. The “log k HSA” value with HSA [9] is -0.6.
For `CC(=O)Nc1ccc(O)cc1` [Paracetamol], the “CHI IAM” value in [10] is recorded as 2.9. Also, the “% AGP” value in the data set on AGP [5] was 3.2%. For the same compound, the “%HSA” value in the data set with HSA [6] is recorded as 14.0%. In the data set with AGP [7], the “log k AGP” value is recorded as -1.5. Also, the “log k HSA” value with HSA [9] was -0.8.
With `CC(C)NCC(O)COc1cccc2ccccc12` (stereo not shown) [Propranolol], the “log k IAM” value in data set [2] is 2.36. Moreover, the Charge result in data set [4] is “Basic”. Besides, the “% AGP” value with AGP [5] is reported as 86.0%. Besides, the “%HSA” value with HSA [6] is on record as 66.6%. Besides, the “log k AGP” value in the data set on AGP [7] is reported as 0.8; in [8], 0.84. In the data set with HSA [9], the “log k HSA” value is recorded as 0.3.
In the case of `COc1cc(Cc2cnc(N)nc2N)cc(OC)c1OC` [Trimethoprim], the “log k HSA” value is recorded as -0.05 in data set [1] and -0.2 with HSA [9]. The “log k IAM” value in data set [2] is reported as 1.01. Besides, the “% AGP” value with AGP [5] is given as 46.2%. The “%HSA” value in the data set on HSA [6] is 37.6%. The “log k AGP” value in the data set on AGP [7] was -0.1; in data set [8] it was -0.07. Moreover, in the data set on hERG channel (setting [12]), the “hERG pIC50” value was 3.62.
As to `CC(=O)CC(c1ccccc1)c1c(O)c2ccccc2oc1=O` (stereo not shown) [Warfarin], the “log k AGP” value in the data set with AGP [11] is reported as 0.7. For the same compound, the “% AGP” value in the data set with AGP [5] is listed as 83.2%. Moreover, in the data set on HSA [9], the “log k HSA” value was 1.5.
